Source: US11267811B2, “Small molecule inhibitors of galectin-3” (BRISTOL-MYERS SQUIBB COMPANY, priority 2017, dated 2022)

The compounds below were run against His-tagged recombinant human Gal-3 (hGal-3) (Homo sapiens (Human), UniProt P17931) (assay: Gal-3 HTRF assay (His-tagged hGal-3 binding to B-ASF)). Conditions: HTRF, hGal-3 15 nM, B-ASF 15 nM; read-out: hGal-3 IC50.
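Note: compounds preincubated 30 min with hGal-3, then 1 h with B-ASF, detection via terbium anti-His antibody and streptavidin d2. Control with B-ASF counts as full signal, omitting B-ASF as background.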

Sequence of His-tagged recombinant human Gal-3 (hGal-3) (P17931 whole entry): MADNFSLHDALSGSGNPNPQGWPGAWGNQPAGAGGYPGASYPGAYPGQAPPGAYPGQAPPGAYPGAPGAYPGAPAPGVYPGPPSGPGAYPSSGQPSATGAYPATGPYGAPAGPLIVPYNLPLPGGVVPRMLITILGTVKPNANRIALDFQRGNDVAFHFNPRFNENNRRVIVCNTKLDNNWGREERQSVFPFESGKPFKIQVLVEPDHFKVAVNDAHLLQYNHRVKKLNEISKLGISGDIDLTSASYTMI

Row | SMILES | IC50
1 | OC[C@H]1O[C@@H](c2oncc2-c2ccc(Cl)c(Cl)c2)[C@H](O)[C@@H](n2cc(-c3cc(F)c(F)c(F)c3)nn2)[C@H]1O [Example 288, (2R,3R,4S,5R,6R)-2-(4-(3,4-dichlorophenyl)isoxazol-5-yl)-6-(hydroxymethyl)-4-(4-(3,4,5-trifluorophenyl)-1H-1,2,3-triazol-1-yl)tetrahydro-2H-pyran-3,5-diol] | 4 µM
2 | OC[C@H]1O[C@@H](c2nn[nH]c2-c2cccc(Cl)c2)[C@H](O)[C@@H](n2cc(-c3cc(F)c(F)c(F)c3)nn2)[C@H]1O [Example 290, (2S,3R,4R,5R,6R)-2-(5-(3-chlorophenyl)-1H-1,2,3-triazol-4-yl)-6-(hydroxymethyl)-4-(4-(3,4,5-trifluorophenyl)-1H-1,2,3-triazol-1-yl)tetrahydro-2H-pyran-3,5-diol] | 3 µM
3 | OC[C@H]1O[C@@H](n2ccc3cc(Cl)ccc32)[C@H](O)[C@@H](n2cc(-c3cc(F)c(F)c(F)c3)nn2)[C@H]1O [Example 291, (2R,3R,4S,5R,6R)-2-(5-chloro-1H-indol-1-yl)-6-(hydroxymethyl)-4-(4-(3,4,5-trifluorophenyl)-1H-1,2,3-triazol-1-yl)tetrahydro-2H-pyran-3,5-diol] | 10 µM
4 | COc1ccc([C@@H]2O[C@H](CO)[C@H](O)[C@H](n3cc(-c4cc(F)c(F)c(F)c4)nn3)[C@H]2O)cc1 [Example 292, (2R,3R,4R,5R,6S)-2-(hydroxymethyl)-6-(4-methoxyphenyl)-4-(4-(3,4,5-trifluorophenyl)-1H-1,2,3-triazol-1-yl)tetrahydro-2H-pyran-3,5-diol] | 10 µM
5 | CNC(=O)c1nnc([C@@H]2O[C@H](CO)[C@H](O)[C@H](n3cc(-c4cccc(F)c4)nn3)[C@H]2O)o1 [Example 295, 5-((2R,3R,4S,5R,6R)-4-(4-(3-fluorophenyl)-1H-1,2,3-triazol-1-yl)-3,5-dihydroxy-6-(hydroxymethyl)tetrahydro-2H-pyran-2-yl)-N-methyl-1,3,4-oxadiazole-2-carboxamide] | 14.4 µM
6 | O=C(NCc1ccncc1)c1nnc([C@@H]2O[C@H](CO)[C@H](O)[C@H](n3cc(-c4cccc(F)c4)nn3)[C@H]2O)o1 [Example 296, 5-((2R,3R,4S,5R,6R)-4-(4-(3-fluorophenyl)-1H-1,2,3-triazol-1-yl)-3,5-dihydroxy-6-(hydroxymethyl)tetrahydro-2H-pyran-2-yl)-N-(pyridin-4-ylmethyl)-1,3,4-oxadiazole-2-carboxamide] | 1.49 µM
7 | CCN(CC)CCNC(=O)c1nnc([C@@H]2O[C@H](CO)[C@H](O)[C@H](n3cc(-c4cccc(F)c4)nn3)[C@H]2O)o1 [Example 297, N-(2-(diethylamino)ethyl)-5-((2R,3R,4S,5R,6R)-4-(4-(3-fluorophenyl)-1H-1,2,3-triazol-1-yl)-3,5-dihydroxy-6-(hydroxymethyl)tetrahydro-2H-pyran-2-yl)-1,3,4-oxadiazole-2-carboxamide] | 9.77 µM
8 | O=C(NCc1cccnc1)c1nnc([C@@H]2O[C@H](CO)[C@H](O)[C@H](n3cc(-c4cccc(F)c4)nn3)[C@H]2O)o1 [Example 298, 5-((2R,3R,4S,5R,6R)-4-(4-(3-fluorophenyl)-1H-1,2,3-triazol-1-yl)-3,5-dihydroxy-6-(hydroxymethyl)tetrahydro-2H-pyran-2-yl)-N-(pyridin-3-ylmethyl)-1,3,4-oxadiazole-2-carboxamide] | 43.6 µM
9 | O=C(NCCN1CCOCC1)c1nnc([C@@H]2O[C@H](CO)[C@H](O)[C@H](n3cc(-c4cccc(F)c4)nn3)[C@H]2O)o1 [Example 299, 5-((2R,3R,4S,5R,6R)-4-(4-(3-fluorophenyl)-1H-1,2,3-triazol-1-yl)-3,5-dihydroxy-6-(hydroxymethyl)tetrahydro-2H-pyran-2-yl)-N-(2-morpholinoethyl)-1,3,4-oxadiazole-2-carboxamide] | 10.6 µM
10 | Cc1nc([C@@H]2O[C@H](CO)[C@H](O)[C@H](n3cc(-c4cccc(F)c4)nn3)[C@H]2O)oc1CO [Example 300, (2R,3R,4S,5R,6R)-4-(4-(3-fluorophenyl)-1H-1,2,3-triazol-1-yl)-2-(hydroxymethyl)-6-(5-(hydroxymethyl)-4-methyloxazol-2-yl)tetrahydro-2H-pyran-3,5-diol] | 9.43 µM
11 | Cc1nc([C@@H]2O[C@H](CO)[C@H](O)[C@H](n3cc(-c4cccc(F)c4)nn3)[C@H]2O)oc1C(=O)O [Example 301, 2-((2R,3R,4S,5R,6R)-4-(4-(3-fluorophenyl)-1H-1,2,3-triazol-1-yl)-3,5-dihydroxy-6-(hydroxymethyl)tetrahydro-2H-pyran-2-yl)-4-methyloxazole-5-carboxylic acid] | 6.35 µM
12 | Cc1nc2ccc(-n3cnnc3[C@@H]3O[C@H](CO)[C@H](O)[C@H](n4cc(-c5cc(F)c(Br)c(F)c5)nn4)[C@H]3OCC(F)F)cc2s1 [Example 321, (2R,3R,4S,5R,6S)-4-(4-(4-bromo-3,5-difluorophenyl)-1H-1,2,3-triazol-1-yl)-5-(2,2-difluoroethoxy)-2-(hydroxymethyl)-6-(4-(2-methylbenzo[d]thiazol-6-yl)-4H-1,2,4-triazol-3-yl)tetrahydro-2H-pyran-3-ol] | 0.053 µM
13 | Cc1nc2ccc(-n3cnnc3[C@@H]3O[C@H](CO)[C@H](O)[C@H](n4cc(-c5ccc(Br)c(F)c5)nn4)[C@H]3OCC(F)F)cc2s1 [Example 322, (2R,3R,4S,5R,6S)-4-(4-(4-bromo-3-fluorophenyl)-1H-1,2,3-triazol-1-yl)-5-(2,2-difluoroethoxy)-2-(hydroxymethyl)-6-(4-(2-methylbenzo[d]thiazol-6-yl)-4H-1,2,4-triazol-3-yl)tetrahydro-2H-pyran-3-ol] | 0.072 µM
14 | OC[C@H]1O[C@@H](c2nncn2-c2cc(Cl)cc3cccnc23)[C@H](OCC(F)F)[C@@H](n2cc(-c3ccc(Br)c(F)c3)nn2)[C@H]1O [Example 323, (2R,3R,4S,5R,6S)-4-(4-(4-bromo-3-fluorophenyl)-1H-1,2,3-triazol-1-yl)-6-(4-(6-chloroquinolin-8-yl)-4H-1,2,4-triazol-3-yl)-5-(2,2-difluoroethoxy)-2-(hydroxymethyl)tetrahydro-2H-pyran-3-ol] | 0.13 µM
15 | Cc1nnc([C@@H]2O[C@H](CO)[C@H](O)[C@H](n3cc(-c4ccc(Br)c(F)c4)nn3)[C@H]2OCC(F)F)n1-c1cc(Cl)ccc1C(F)(F)F [Example 325, (2R,3R,4S,5R,6S)-4-(4-(4-bromo-3-fluorophenyl)-1H-1,2,3-triazol-1-yl)-6-(4-(5-chloro-2-(trifluoromethyl)phenyl)-5-methyl-4H-1,2,4-triazol-3-yl)-5-(2,2-difluoroethoxy)-2-(hydroxymethyl)tetrahydro-2H-pyran-3-ol] | 0.02 µM
16 | OC[C@H]1O[C@@H](c2nncn2-c2cc(Cl)ccc2Cl)[C@H](O)[C@@H](n2cc(-c3cc(F)c(Cl)c(F)c3)nn2)[C@H]1O [Example 326, (2S,3R,4R,5R,6R)-4-(4-(4-chloro-3,5-difluorophenyl)-1H-1,2,3-triazol-1-yl)-2-(4-(2,5-dichlorophenyl)-4H-1,2,4-triazol-3-yl)-6-(hydroxymethyl)tetrahydro-2H-py ran-3,5-diol] | 0.044 µM

Same assay, conditions: read-out: hGal3 IC50

Row | SMILES | IC50
17 | Cc1nc2ccc(-n3cnnc3[C@@H]3O[C@H](CO)[C@H](O)[C@H](n4cc(-c5cc(F)c(Cl)c(F)c5)nn4)[C@H]3O)cc2s1 [Example 302] | 0.028 µM
18 | Cc1nc2ccc(-n3cnnc3[C@@H]3O[C@H](CO)[C@H](O)[C@H](n4cc(-c5ccc(Cl)c(F)c5)nn4)[C@H]3O)cc2s1 [Example 303] | 0.023 µM
19 | OC[C@H]1O[C@@H](c2nncn2-c2cc(Cl)ccc2Cl)[C@H](O)[C@@H](n2cc(-c3ccc(Cl)c(F)c3)nn2)[C@H]1O [Example 304] | 0.067 µM
20 | Cc1nc2ccc(-n3c(C)nnc3[C@@H]3O[C@H](CO)[C@H](O)[C@H](n4cc(-c5ccc(Cl)c(F)c5)nn4)[C@H]3O)cc2s1 [Example 305] | 0.031 µM
21 | Cc1nc2ccc(-n3c(C)nnc3[C@@H]3O[C@H](CO)[C@H](O)[C@H](n4cc(-c5cc(F)c(Cl)c(F)c5)nn4)[C@H]3O)cc2s1 [Example 306] | 0.035 µM
22 | CO[C@@H]1[C@@H](n2cc(-c3cc(F)c(Cl)c(F)c3)nn2)[C@@H](O)[C@@H](CO)O[C@H]1c1nncn1-c1cc(Cl)ccc1C(F)(F)F [Example 308] | 0.022 µM
23 | OC[C@H]1O[C@@H](c2nncn2-c2cc(Cl)ccc2C(F)(F)F)[C@H](O)[C@@H](n2cc(-c3ccc(Cl)c(F)c3)nn2)[C@H]1O [Example 309] | 0.02 µM
24 | CO[C@@H]1[C@@H](n2cc(-c3cc(F)c(Cl)c(F)c3)nn2)[C@@H](O)[C@@H](CO)O[C@H]1c1nnc(C)n1-c1cc(Cl)ccc1C(F)(F)F [Example 310] | 0.022 µM
25 | Cc1nnc([C@@H]2O[C@H](CO)[C@H](O)[C@H](n3cc(-c4cc(F)c(Cl)c(F)c4)nn3)[C@H]2O)n1-c1cc(Cl)ccc1C(F)(F)F [Example 311] | 0.012 µM
26 | N#Cc1ccc(Cl)cc1-n1cnnc1[C@@H]1O[C@H](CO)[C@H](O)[C@H](n2cc(-c3cc(F)c(Cl)c(F)c3)nn2)[C@H]1O [Example 312] | 1.6 µM
27 | Cc1nnc([C@@H]2O[C@H](CO)[C@H](O)[C@H](n3cc(-c4cc(F)c(Br)c(F)c4)nn3)[C@H]2O)n1-c1cc(Cl)ccc1C(F)(F)F [Example 313] | 0.0087 µM
28 | Cc1nc2ccc(-n3c([C@@H]4O[C@H](CO)[C@H](O)[C@H](n5cc(-c6cc(F)c(Br)c(F)c6)nn5)[C@H]4O)nnc3C(F)(F)F)cc2s1 [Example 314] | 0.057 µM
29 | Cc1nc2ccc(-n3c([C@@H]4O[C@H](CO)[C@H](O)[C@H](n5cc(-c6ccc(Br)c(F)c6)nn5)[C@H]4O)nnc3C(F)(F)F)cc2s1 [Example 315] | 0.98 µM
30 | Cc1nnc([C@@H]2O[C@H](CO)[C@H](O)[C@H](n3cc(-c4cc(F)c(Br)c(F)c4)nn3)[C@H]2O)n1-c1cc(Cl)cc2cccnc12 [Example 318] | 0.011 µM
31 | Cc1nnc([C@@H]2O[C@H](CO)[C@H](O)[C@H](n3cc(-c4cc(F)c(Cl)c(F)c4)nn3)[C@H]2O)n1-c1cc(Cl)cc2cccnc12 [Example 319] | 0.014 µM
